# In paper PMC8699473, “An Easily Expandable Multi-Drug LC-MS Assay for the Simultaneous Quantification of 57 Oral Antitumor Drugs in Human Plasma” (Cancers, 2021):
# Assay: Short-term stability in spiked pooled human plasma (bench-top, 4 °C, 56 °C)
# Settings: for concentrations in short-term stability investigations: 24 h, room temperature, with or without light
SMILES,"Short-time stability (1h, 56°C) Accuracy [%] (validation standard 2xLLOV)","Short-time stability (24h, 4°C, without daylight) Accuracy [%] (validation standard 2xLLOV)","Short-time stability (24h, RT, with daylight) Accuracy [%] (validation standard 2xLLOV)","Short-time stability (24h, RT, without daylight) Accuracy [%] (validation standard 2xLLOV)","Short-time stability (1h, 56°C) Accuracy [%] (validation standard LLOV)","Short-time stability (24h, 4°C, without daylight) Accuracy [%] (validation standard LLOV)","Short-time stability (24h, RT, with daylight) Accuracy [%] (validation standard LLOV)","Short-time stability (24h, RT, without daylight) Accuracy [%] (validation standard LLOV)","Short-time stability (1h, 56°C) Accuracy [%] (validation standard MOV)","Short-time stability (24h, 4°C, without daylight) Accuracy [%] (validation standard MOV)","Short-time stability (24h, RT, with daylight) Accuracy [%] (validation standard MOV)","Short-time stability (24h, RT, without daylight) Accuracy [%] (validation standard MOV)","Short-time stability (1h, 56°C) Accuracy [%] (validation standard ULOV)","Short-time stability (24h, 4°C, without daylight) Accuracy [%] (validation standard ULOV)","Short-time stability (24h, RT, with daylight) Accuracy [%] (validation standard ULOV)","Short-time stability (24h, RT, without daylight) Accuracy [%] (validation standard ULOV)",concentrations in short-term stability investigations
O=C(Nc1cnn2ccc(N3CCC[C@@H]3c3cc(F)ccc3F)nc12)N1CC[C@H](O)C1 [Larotrectinib],58.9,104.3,109.3,102.4,44.4,107.8,115.6,100.1,58.2,99.9,106.3,110.8,50.9,98.3,105.3,104.5,–
COc1cc2nccc(Oc3ccc(NC(=O)C4(C(=O)Nc5ccc(F)cc5)CC4)cc3)c2cc1OC [Cabozantinib],49.1,101.8,103.6,–,30.2,98.5,91.8,–,51.8,102.2,104.9,–,44.1,96.1,–,–,–
COc1cc2ncnc(Nc3ccc(F)c(Cl)c3)c2cc1OCCCN1CCOCC1 [Gefitinib],46.0,97.4,91.9,92.1,33.3,90.9,83.0,83.7,49.1,103.4,96.2,93.8,42.1,94.9,88.3,87.7,–
NC(=O)c1cccc2cn(-c3ccc([C@@H]4CCCNC4)cc3)nc12 [Niraparib],53.4,96.9,95.2,93.8,46.8,93.8,92.3,91.9,51.1,100.2,97.6,96.5,43.8,92.7,95.8,94.0,–
O=C1CN2Cc3c(ccc(Cl)c3Cl)N=C2N1 [Anagrelide],66.3,104.2,84.8,84.4,55.6,90.4,78.3,67.4,52.9,96.9,96.0,88.7,46.2,93.5,98.5,94.1,–
C=CC(=O)Nc1cc(Nc2nccc(-c3cn(C)c4ccccc34)n2)c(OC)cc1N(C)CCN(C)C [Osimertinib],29.9,95.8,61.4,61.7,28.7,85.8,62.0,60.5,30.1,96.3,75.7,72.0,26.0,86.7,67.4,63.9,60.5–75.7%
Cc1cn(-c2cc(NC(=O)c3ccc(C)c(Nc4nccc(-c5cccnc5)n4)c3)cc(C(F)(F)F)c2)cn1 [Nilotinib],47.8,101.2,107.8,108.6,28.5,96.7,94.9,96.7,52.5,100.3,110.2,114.5,44.6,97.1,108.0,110.3,–
Cc1[nH]c2ccccc2c1CCNCc1ccc(/C=C/C(=O)NO)cc1 [Panobinostat],27.6,81.5,53.1,45.4,1.9,66.1,-0.2,52.8,48.8,93.6,92.2,96.2,46.3,89.2,96.0,100.4,–
O=c1[nH]c(=O)n([C@H]2C[C@H](O)[C@@H](CO)O2)cc1C(F)(F)F [Trifluridine],-6.6,103.5,72.7,76.2,-89.2,83.6,45.6,36.1,28.1,96.3,78.0,75.3,23.2,85.5,66.9,67.3,–
CN(C)C/C=C/C(=O)Nc1cc2c(Nc3ccc(F)c(Cl)c3)ncnc2cc1O[C@H]1CCOC1 [Afatinib],30.4,85.5,80.8,92.5,7.2,85.9,64.3,69.9,36.2,97.9,89.4,91.4,33.2,92.8,77.8,82.7,64.3–92.5%
COc1cc(N2CCC(N3CCN(C)CC3)CC2)ccc1Nc1ncc(Cl)c(Nc2ccccc2P(C)(C)=O)n1 [Brigatinib],18.2,102.8,76.4,74.1,7.8,95.0,55.6,55.1,38.5,104.2,85.3,93.4,35.7,93.7,91.3,90.3,–
COC(=O)c1ccc2c(c1)NC(=O)/C2=C(\Nc1ccc(N(C)C(=O)CN2CCN(C)CC2)cc1)c1ccccc1 [Nintedanib],48.8,103.5,102.5,105.4,56.0,96.7,99.4,96.1,51.2,100.1,104.3,103.0,43.9,88.8,105.8,102.1,–
Cc1nc(Nc2ncc(C(=O)Nc3c(C)cccc3Cl)s2)cc(N2CCN(CCO)CC2)n1 [Dasatinib],47.7,102.2,90.1,98.3,65.9,124.4,90.7,115.9,46.4,100.1,91.7,90.0,38.9,96.7,99.4,93.1,–
